The values that follow come from patent US11485731B2, “Compounds and methods useful in the treatment of a PRMT5-mediated disorder” (ARGONAUT THERAPEUTICS LIMITED, priority 2017, dated 2022).

Each structure is given as a SMILES string. pIC50: −log10 of the molar value.

Sequence of human PRMT5/MEP50 (O14744 whole entry): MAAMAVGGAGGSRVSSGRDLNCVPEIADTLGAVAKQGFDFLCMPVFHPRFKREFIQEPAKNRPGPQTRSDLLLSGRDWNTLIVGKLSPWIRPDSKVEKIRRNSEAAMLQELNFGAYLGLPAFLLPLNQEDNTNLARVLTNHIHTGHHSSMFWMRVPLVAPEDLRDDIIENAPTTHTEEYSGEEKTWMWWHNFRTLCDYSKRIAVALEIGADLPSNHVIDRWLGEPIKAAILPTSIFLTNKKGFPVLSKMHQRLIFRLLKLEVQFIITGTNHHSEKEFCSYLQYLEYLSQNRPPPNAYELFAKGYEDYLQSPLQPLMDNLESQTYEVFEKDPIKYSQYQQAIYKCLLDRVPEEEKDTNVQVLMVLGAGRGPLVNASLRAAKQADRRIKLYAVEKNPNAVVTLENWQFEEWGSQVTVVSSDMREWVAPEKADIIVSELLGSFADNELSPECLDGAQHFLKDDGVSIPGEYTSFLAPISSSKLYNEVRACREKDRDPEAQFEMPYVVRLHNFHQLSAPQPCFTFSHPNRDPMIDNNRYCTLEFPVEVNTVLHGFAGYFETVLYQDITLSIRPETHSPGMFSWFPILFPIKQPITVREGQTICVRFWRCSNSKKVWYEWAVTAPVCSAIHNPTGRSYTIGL
Sequence of human PRMT5/MEP50 (Q9BQA1 whole entry partner): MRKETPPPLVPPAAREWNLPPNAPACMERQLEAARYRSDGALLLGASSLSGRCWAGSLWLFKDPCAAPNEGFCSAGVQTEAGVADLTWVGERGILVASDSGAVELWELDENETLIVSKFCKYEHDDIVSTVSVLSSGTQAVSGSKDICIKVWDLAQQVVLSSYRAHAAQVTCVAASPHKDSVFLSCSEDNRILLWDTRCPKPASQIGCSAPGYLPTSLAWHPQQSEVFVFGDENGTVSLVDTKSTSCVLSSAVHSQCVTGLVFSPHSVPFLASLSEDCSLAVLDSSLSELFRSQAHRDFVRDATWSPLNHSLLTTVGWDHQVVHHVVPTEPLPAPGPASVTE

The assay concerns the target human PRMT5/MEP50 (Homo sapiens (Human), UniProt O14744). Nature of the assay: PRMT5 chemiluminescent assay. Type of assay: biochemical. The conditions noted are these: human PRMT5/MEP50 expressed in HEK293 cells; biotinylated histone peptides; Histone H4 monomethyl R3 antibody; chemiluminescent readout. In a few lines:
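HEK293-expressed PRMT5/MEP50, diluted to 5 ng/µL in assay buffer, reacted 60 min with rotation on plate-bound biotinylated histone peptides. Product was detected with anti-histone H4 R3 monomethyl antibody (60 min), then HRP secondary (30 min) and chemiluminescent substrate. IC50 values came from the chemiluminescence signal.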
For the compound `O=C(OCC(O)CN1CCc2sccc2C1)N1CCCC(c2ccccc2)C1` (centres unmarked) [Example 4AC, 3-(6,7-dihydrothieno[3,2-c]pyridin-5(4H)-yl)-2-hydroxypropyl 3-phenylpiperidine-1-carboxylate], the pIC50 is 6.43.

Take `O=C(OCC(O)CN1CCc2ccccc2C1)N1CCSCC1` (centres unmarked) [Example 4A, 3-(3,4-dihydroisoquinolin-2(1H)-yl)-2-hydroxypropyl thiomorpholine-4-carboxylate]: the pIC50 is 6.32.

Consider `O=C(NCC(O)CN1CCc2ccccc2C1)N1CCCC1` (centres unmarked) [Example 1M, N-[2-hydroxy-3-(1,2,3,4-tetrahydroisoquinolin-2-yl)propyl]pyrrolidine-1-carboxamide], for which the pIC50 is 5.16.

`CC1(O)CCN(C(=O)NC[C@H](O)CN2CCc3ccccc3C2)CC1` [Example 1BG, (S)-N-(3-(3,4-dihydroisoquinolin-2(1H)-yl)-2-hydroxypropyl)-4-hydroxy-4-methylpiperidine-1-carboxamide] gave a pIC50 of 5.40. This pIC50 lies 0.24 log units higher than the previous one.

Regarding `O=C(OCC(O)CN1CCc2ccccc2C1)N1CC(C(=O)N2CCOCC2)C1` (centres unmarked) [Example 4T, 3-(3,4-dihydroisoquinolin-2(1H)-yl)-2-hydroxypropyl 3-(morpholine-4-carbonyl)azetidine-1-carboxylate], the negative logarithm of the IC50 (pIC50) is 5.73.

Regarding `O=C(NC[C@H](O)CN1CCc2ccccc2C1)N1CCS[C@@H](c2ccccc2)C1` (single isomer, unassigned) [Example 5C, (S)-N-((S)-3-(3,4-dihydroisoquinolin-2(1H)-yl)-2-hydroxypropyl)-2-phenylthiomorpholine-4-carboxamide or (R)-N-((S)-3-(3,4-dihydroisoquinolin-2(1H)-yl)-2-hydroxypropyl)-2-phenylthiomorpholine-4-carboxamide], the negative-log IC50 (pIC50) is 7.77.

`O=C(OCC(O)CN1CCc2ccccc2C1)N1CC(C(=O)N2C3CCC2COC3)C1` (centres unmarked) [Example 4U, 3-(3,4-dihydroisoquinolin-2(1H)-yl)-2-hydroxypropyl 3-(3-oxa-8-azabicyclo[3.2.1]octane-8-carbonyl)azetidine-1-carboxylate] gave a pIC50 of 5.53.

`CN(C)C(=O)C1CN(C(=O)NCC(O)CN2CCc3ccccc3C2)C1` (centres unmarked) [Example 1V, N^1-(3-(3,4-dihydroisoquinolin-2(1H)-yl)-2-hydroxypropyl)-N^3,N^3-dimethylazetidine-1,3-dicarboxamide] showed a pIC50 of 5.07.

Take `O=C(OCC(O)CN1CCc2ccccc2C1)N1CCc2ccccc2C1` (centres unmarked) [Example 3A, 3-(3,4-dihydroisoquinolin-2(1H)-yl)-2-hydroxypropyl 3,4-dihydroisoquinoline-2(1H)-carboxylate]: the pIC50 was 6.72.

In the case of `O=C(NCC(O)CN1CCc2ccccc2C1)N1CCCCC1` (centres unmarked) [Example 1L, N-[2-hydroxy-3-(1,2,3,4-tetrahydroisoquinolin-2-yl)propyl]piperidine-1-carboxamide], the pIC50 was 5.78. Against the preceding compound, the pIC50 is 0.94 log units lower.

In turn, `O=C(NCC(O)CN1CCc2ccccc2C1)N1CC(C(=O)N2CCOCC2)C1` (centres unmarked) [Example 1W, N-(3-(3,4-dihydroisoquinolin-2(1H)-yl)-2-hydroxypropyl)-3-(morpholine-4-carbonyl)azetidine-1-carboxamide] showed a pIC50 of 5.13.

For the compound `O=C(NC[C@H](O)CN1CCc2ccccc2C1)N1CCCSCC1` [Example 1AT, (S)-N-(3-(3,4-dihydroisoquinolin-2(1H)-yl)-2-hydroxypropyl)-1,4-thiazepane-4-carboxamide], the pIC50 is 6.16.

The compound `O=C(NC[C@H](O)CN1CCc2ccccc2C1)N1CCC(N2CCSCC2)C1` (stereo partly drawn) [Example 1CE, N-((S)-3-(3,4-dihydroisoquinolin-2(1H)-yl)-2-hydroxypropyl)-3-thiomorpholinopyrrolidine-1-carboxamide] showed a pIC50 of 5.51.

In turn, `O=C(NC[C@H](O)CN1CCc2ccccc2C1)N1CCCC(C2CCOCC2)C1` (stereo partly drawn) [Example 1BZ, N-((S)-3-(3,4-dihydroisoquinolin-2(1H)-yl)-2-hydroxypropyl)-3-(tetrahydro-2H-pyran-4-yl)piperidine-1-carboxamide] gave a pIC50 of 6.57.

As to `O=C(OCC(O)CN1CCc2sccc2C1)N1CCC(c2ccccc2)C1` (centres unmarked) [Example 4AE, 3-(6,7-dihydrothieno[3,2-c]pyridin-5(4H)-yl)-2-hydroxypropyl 3-phenylpyrrolidine-1-carboxylate], the pIC50 was 7.39.

Turning to `O=C(NCC(O)CN1CCc2sccc2C1)N1CCCC(c2ccccc2)C1` (centres unmarked) [Example 1AC, N-(3-(6,7-dihydrothieno[3,2-c]pyridin-5(4H)-yl)-2-hydroxypropyl)-3-phenylpiperidine-1-carboxamide], the pIC50 was 6.42.

The compound `O=C(OCC(O)CN1CCc2ccccc2C1)N1CCCc2ccccc21` (centres unmarked) [Example 4AG, 3-(3,4-dihydroisoquinolin-2(1H)-yl)-2-hydroxypropyl 3,4-dihydroquinoline-1(2H)-carboxylate] had a pIC50 of 6.44.

As for `O=C(NC[C@H](O)CN1CCc2ccccc2C1)N1CCCC(C2CCSCC2)C1` (stereo partly drawn) [Example 1CA, N-((S)-3-(3,4-dihydroisoquinolin-2(1H)-yl)-2-hydroxypropyl)-3-(tetrahydro-2H-thiopyran-4-yl)piperidine-1-carboxamide], the pIC50 is 7.24.

As for `O=C(NC[C@H](O)CN1CCc2ccccc2C1)N1CCCC(N2CCSCC2)C1` (stereo partly drawn) [Example 1BX, N-((S)-3-(3,4-dihydroisoquinolin-2(1H)-yl)-2-hydroxypropyl)-3-thiomorpholinopiperidine-1-carboxamide], the pIC50 was 6.20.

The compound `O=C(OC[C@H](O)CN1CCc2ccccc2C1)N1CC[C@@H](c2ccccc2)C1` [Example 4K, (R)-3-(3,4-dihydroisoquinolin-2(1H)-yl)-2-hydroxypropyl (S)-3-phenylpyrrolidine-1-carboxylate] gave a pIC50 of 7.70.

The compound `CN1CCCN(C(=O)NCC(O)CN2CCc3ccccc3C2)CC1` (centres unmarked) [Example 1CL, N-(3-(3,4-dihydroisoquinolin-2(1H)-yl)-2-hydroxypropyl)-4-methyl-1,4-diazepane-1-carboxamide] showed a pIC50 of 6.36.

As to `CN(C)C(=O)C1CCN(C(=O)NC[C@H](O)CN2CCc3ccccc3C2)CC1` [Example 1AX, (S)-N^1-(3-(3,4-dihydroisoquinolin-2(1H)-yl)-2-hydroxypropyl)-N^4,N^4-dimethylpiperidine-1,4-dicarboxamide], the negative-log IC50 (pIC50) was 6.23. This pIC50 and that of the compound before are within 0.2 log units of each other.

`O=C(NC[C@H](O)CN1CCc2ccccc2C1)N1CCCC(N2CCCOCC2)C1` (stereo partly drawn) [Example 1CC, N-((S)-3-(3,4-dihydroisoquinolin-2(1H)-yl)-2-hydroxypropyl)-3-(1,4-oxazepan-4-yl)piperidine-1-carboxamide] had a pIC50 of 5.78.

In turn, `O=C(NC[C@H](O)CN1CCc2ccccc2C1)N1CCC(O)(c2ccccc2)C1` (stereo partly drawn) [Example 1BI, N-((S)-3-(3,4-dihydroisoquinolin-2(1H)-yl)-2-hydroxypropyl)-3-hydroxy-3-phenylpyrrolidine-1-carboxamide] showed a pIC50 of 6.40.

The compound `O=C(NC[C@H](O)CN1CCc2ccccc2C1)N1CCCC(c2ccccn2)C1` (stereo partly drawn) [Example 1BQ, N-((S)-3-(3,4-dihydroisoquinolin-2(1H)-yl)-2-hydroxypropyl)-3-(pyridin-2-yl)piperidine-1-carboxamide] showed a pIC50 of 7.32.

`O=C(NC[C@H](O)CN1CCc2ccccc2C1)N1CCCN(S(=O)(=O)c2ccccc2)CC1` [Example 1BM, (S)-N-(3-(3,4-dihydroisoquinolin-2(1H)-yl)-2-hydroxypropyl)-4-(phenylsulfonyl)-1,4-diazepane-1-carboxamide] gave a pIC50 of 5.89.

In turn, `O=C(NCC(O)CN1CCc2ccccc2C1)N1CCC(Cc2ccccc2)CC1` (centres unmarked) [Example 1Q, 4-benzyl-N-(3-(3,4-dihydroisoquinolin-2(1H)-yl)-2-hydroxypropyl)piperidine-1-carboxamide] gave a pIC50 of 6.56.

On to `O=C(NCC(O)CN1CCc2ccccc2C1)N1CCN(c2ccccc2)CC1` (centres unmarked) [Example 1C, N-[2-hydroxy-3-(1,2,3,4-tetrahydroisoquinolin-2-yl)propyl]-4-phenylpiperazine-1-carboxamide], for which the pIC50 was 5.91. Compared with the last compound, the pIC50 is 0.65 log units lower.

As to `O=C(OC[C@@H](O)CN1CCc2ccccc2C1)N1CCC(C(=O)N2C3CCC2COC3)CC1` [Example 4X, (S)-3-(3,4-dihydroisoquinolin-2(1H)-yl)-2-hydroxypropyl 4-(3-oxa-8-azabicyclo[3.2.1]octane-8-carbonyl)piperidine-1-carboxylate], the pIC50 was 6.09.

Take `O=C(NCC(O)CN1CCc2ccccc2C1)N1CCSCC1` (centres unmarked) [Example 1U, N-(3-(3,4-dihydroisoquinolin-2(1H)-yl)-2-hydroxypropyl)thiomorpholine-4-carboxamide]: the pIC50 was 6.05. The pIC50 values of the last two compounds are within 0.2 log units of each other.

Take `O=C(OCC(O)CN1CCc2ccsc2C1)N1CCCC(c2ccccc2)C1` (centres unmarked) [Example 4AD, 3-(4,7-dihydrothieno[2,3-c]pyridin-6(5H)-yl)-2-hydroxypropyl 3-phenylpiperidine-1-carboxylate]: the pIC50 is 6.65.

Compound `O=C(NC[C@H](O)CN1CCc2ccccc2C1)N1CCC(F)(F)CC1` [Example 1BF, (S)-N-(3-(3,4-dihydroisoquinolin-2(1H)-yl)-2-hydroxypropyl)-4,4-difluoropiperidine-1-carboxamide] showed a pIC50 of 5.25. This pIC50 lies 1.40 log units lower than the previous one.

Compound `O=C(NC[C@@H](O)CN1CCc2ccccc2C1)N1CCCc2ccccc21` [Example 1AK, (R)-N-(3-(3,4-dihydroisoquinolin-2(1H)-yl)-2-hydroxypropyl)-3,4-dihydroquinoline-1(2H)-carboxamide] showed a pIC50 of 5.22.

For the compound `O=C(NCC(O)CN1CCc2ccccc2C1)N1CCCN(c2ccccc2)CC1` (centres unmarked) [Example 1S, N-(3-(3,4-dihydroisoquinolin-2(1H)-yl)-2-hydroxypropyl)-4-phenyl-1,4-diazepane-1-carboxamide], the pIC50 was 7.02.

As for `O=C(NC[C@H](O)CN1CCc2ccccc2C1)N1CCC(N2CCCSCC2)C1` (stereo partly drawn) [Example 1CF, N-((S)-3-(3,4-dihydroisoquinolin-2(1H)-yl)-2-hydroxypropyl)-3-(1,4-thiazepan-4-yl)pyrrolidine-1-carboxamide], the pIC50 is 6.42. This pIC50 lies 0.60 log units lower than the previous one.

As a reminder, the pIC50 is −log10 of the IC50, conventionally taken in molar units. High values mean a small IC50, low ones a large IC50.
